In patent US20230265524A1, “IMMUNOGENIC RETROELEMENTS AND THEIR USE IN CANCER THERAPY” (UNIVERSITY HEALTH NETWORK, priority 2020, published 2023):

Legend:
[1] = tested on: ADAR1; assay: qPCR analysis of ADAR1 mRNA level and isoforms; type: cell-based, human; details: CRC cells transiently transfected, 100 ng/ml
Description: C, qPCR analysis of total ADAR1 mRNA level after treatment with 5-AZA-CdR (300 nM, for 5 days) or transfection with 100 ng ml-1 poly(I:C) over a course of 24 days. Cells were washed out at day 5 and seeded in drug-free medium. Data are mean±s.e.m.****P<0.0001, Sidak-corrected two-way ANOVA.
A, ADAR1 isoforms (p110 and p150) relative expression analysed by qPCR. LACZ denotes ADAR1WT; PIC denotes 100 ng/ml poly (I:C) for 5 days; AZA denotes 300 nM 5-AZA-CdR for 5 days). Data are mean±s.e.m. (n=3 from three independent experiments). ***P<0.001, ****P<0.0001, Tukey-corrected two-way ANOVA.
To test this hypothesis, we first determined if ADAR1 depletion affects dsRNA formation by IR-Alus in untreated patient-derived CRCs. We generated ADAR1 knock-down CRCs using two different hairpin RNAs (ADAR1^KDA/B) and confirmed depletion of both the constitutively expressed (p110) and interferon-inducible (p150) ADAR1 isoforms (FIG. 8A). […] To determine if MDA5 ligands also increase upon ADAR1 depletion, we performed the MDA5 protection assay followed by RNA-Seq, as above. […] Again, these immunogenic Alus were primarily IR-Alu pairs unidirectionally transcribed in either the sense (+/+) or antisense (−/−) direction and induced upon ADAR1 depletion (FIG. 9C-J).
Next, we tested whether epigenetic therapy can induce and activate ADAR1 editing activity.

[2] = tested on: interferon stimulated genes (ISG15, DDX58 and IRF7); assay: interferon response / ISG expression by RNA-seq GSEA and qRT-PCR in patient-derived CRC cells; type: cell-based, human; details: transfection in wild-type and ADAR1-depleted cells, across time-points
From the text: H, Geneset Enrichment Analysis showing an enrichment of the geneset ‘Hallmark_Interferon_Alpha_Response’ in ADAR1^KD 5-AZA-treated cells compared to ADAR1^WT 5-AZA-CdR treated cells.
I, Interferon-responsive geneset enrichment score in mock-treated ADAR1^WT, 5-AZA-CdR-treated ADAR1^WT, mock-treated ADAR1^KD, and 5-AZA-CdR-treated ADAR1^KD conditions. Samples were collected 5, 14, and 24 days post-treatment.
B, Kinetics of interferon stimulated genes (ISG15, DDX58 and IRF7) relative expression in ADAR1^WT (Black) and ADAR1^KD (Gray) patient-derived colorectal cancer cells (CRCs) treated with 5-AZA-CdR analyzed by qRT-PCR. Data are mean±s.e.m. (n=3 from three independent experiments). *P<0.05, **P<0.01, ****P<0.0001, Sidak-corrected two-way ANOVA.
C, Interferon-responsive gene expression in ADAR1^WT mock-treated (MT), 5-AZA-CdR treated, ADAR1^KD NT and ADAR1^KD p(I:C) transfected samples collected 5 days, 14 days and 24 days post-treatment, measured by RNA-seq.
D, Kinetics of interferon stimulated genes (ISG15, DDX58 and IRF7) relative expression in ADAR1^WT (Black) and ADAR1^KD (Gray) patient-derived CRCs transfected with p(I:C), analyzed by qRT-PCR. Data are mean±s.e.m. **P<0.01, ****P<0.0001, Sidak-corrected two-way ANOVA.
F, Interferon stimulated genes (ISG15, DDX58 and IRF7) relative expression in CTRL (LUC) (Black) and ADAR1^p150CE (Gray) patient-derived CRCs treated with 5-AZA-CdR, analyzed by qRT-PCR. Data are mean±s.e.m. **P<0.01, ***P<0.001, Sidak-corrected two-way ANOVA.
G, IFN enrichment score in CTRL(LUC) Mock-treated, 5-AZA-CdR treated, ADAR1-p150 overexpressing NT and ADAR1-p150 overexpressing 5-AZA-CdR treated samples collected 5 days post-treatment and measured by RNA-seq.
Based on these findings, we hypothesized that ADAR1 depletion would synergize with the viral mimicry response induced by DNMTi treatment. To assess how ADAR1 depletion affects 5-AZA-CdR treated samples, we performed RNA-seq analyses in patient-derived CRC cells. […] As a molecular read-out of dsRNA pattern recognition activation, we measured MAVS aggregation in the mitochondrial fraction of cell lysates^34. […] Taken together, our findings establish that ADAR1 acts as a negative feedback loop, restricting the viral mimicry response induced by DNMTi treatment in cancer cells.

Poly(I:C)
interferon-inducible isoform of ADAR1 (p150) expression [1]: acute up-regulation
activation of ISGs [2]: comparable activation of ISGs across time-points
